# pEC50: −log10 of the molar value. Ends that are not written are not given here. Peptide text beside a SMILES is read from it. * marks the point of attachment. Propionyl = CCC(=O)*
# Tests used:
# Format in all cases: cell-based
# hPTH-1 receptors [1] = molecular target: T1, hPTH-1 receptors (Homo sapiens, UniProt Q03431); experiment: cAMP measurements in SaOS-2 cells; parameters: expressed in transfected cells; conditions: SaOS-2 cells, 10,000-20,000 human PTH-1 receptors per cell; up to 1 uM (FIG. 2)
# T1 sequence (Q03431 27-593): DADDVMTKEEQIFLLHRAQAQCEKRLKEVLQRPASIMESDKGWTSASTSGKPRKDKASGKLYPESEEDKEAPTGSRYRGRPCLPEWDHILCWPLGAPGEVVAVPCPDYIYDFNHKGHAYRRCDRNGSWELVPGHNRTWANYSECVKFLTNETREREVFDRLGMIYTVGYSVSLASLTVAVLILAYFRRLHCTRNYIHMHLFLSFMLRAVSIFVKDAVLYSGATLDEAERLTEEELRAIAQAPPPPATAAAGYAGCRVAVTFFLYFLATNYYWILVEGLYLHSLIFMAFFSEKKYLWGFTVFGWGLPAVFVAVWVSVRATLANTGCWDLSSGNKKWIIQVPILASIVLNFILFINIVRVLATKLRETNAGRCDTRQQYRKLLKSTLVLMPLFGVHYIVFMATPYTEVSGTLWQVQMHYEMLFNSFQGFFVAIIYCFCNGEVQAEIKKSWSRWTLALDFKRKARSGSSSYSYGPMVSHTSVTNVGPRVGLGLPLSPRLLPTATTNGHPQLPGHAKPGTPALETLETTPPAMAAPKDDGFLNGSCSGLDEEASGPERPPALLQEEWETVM
# From the text: (§1) The following cell lines were used in these studies. HKRK C53 subclones of LLC-PKI porcine renal epithelial cells which stably express human PTH-1 receptors (150,000 receptors/cell). SaOS-2 cells are transformed human osteosarcoma cells which express relatively few (10,000-20,000 per cell) human PTH-1 receptors. HPR2-7 cells are subclones of LLC-PK1 which express approximately 250,000 recombinant human PTH-2 receptors per cell. HKRK-B7 cells are subclones of LLC-PK which stably express approximately 1 million hPTH-1 receptors per cell. HPR2-22 cells are subclones of LLC-PK1 which express 1.5 million recombinant hPTH-2 receptors per cell. The HPR2-27 and HPR2-22 cell lines were created in the same fashion as the HKRK cells but employing instead type 2 PTH receptor cDNA using the transfection technique of (Bringhurst, F. R., et al., Endocrinology 132(5):2090-2098 (1993); Guo, J., et al., Endocrinology 136(9):3884-3891 (1995)).
# (§2) Intracellular cAMP accumulation, PLC activation and PTHR binding affinity were measured as previously reported (Bringhurst, F. R., et al., Endocrinology 132(5):2090-2098 (1993); Guo, J., et al., Endocrinology 136(9):3884-3891 (1995)). Intracellular cAMP accumulation was measured in extracts of cells that were exposed to human PTH peptides in the presence of isobutylmethyxanthine (IBMX, 1 mM) at 37° C. for 15 min. After terminating the reactions by aspiration and freezing in liquid nitrogen, cell monolayers were extracted with 50 mM HCl and cAMP was measured using a radioimmunoassay kit (Dupont-New England Nuclear, Boston, Mass.).
# hPTH-1 receptors [2] = molecular target: T1, hPTH-1 receptors; experiment: cAMP accumulation (adenylyl cyclase activation) in HKRK C53 cells; parameters: expressed in transfected cells; conditions: for cyclic AMP accumulation, efficacy compared with native hPTH(1-34)NH2: HKRK C53 cells, about 150,000 hPTH-1 receptors per cell, 10^-9M and 10^-7M peptide (FIG. 1); for reduction of AC activity relative to hPTH(1-34): via the human PTH-1 receptor, clonal LLC-PK1 cells
# From the text: as §1, with “HKRK-B7 cells are subclones of LLC-PK which stably express approximately 1 million hPTH-1 receptors per cell. HPR2-22 cells are subclones of LLC-PK1 which express 1.5 million recombinant hPTH-2 receptors per cell.” left out
# as §2
# hPTH-1 receptors [3] = molecular target: T1, hPTH-1 receptors; experiment: phospholipase C (PLC) activity in HKRK-B7 cells; parameters: expressed in transfected cells; conditions: for activation of PLC: about 1 million hPTH-1 receptors per cell, 1000 nM (FIG. 4)
# From the text: as §1
# (§3) PLC was activated by PTH agonists in the presence of 30 mM LiCl at 37° C. for 30 min after 16 hr of labeling with [^3H]myo-inositol (3uCi/ml) in serum-free medium containing 0.1% bovine serum albumin. The reactions were stopped by rapid aspiration and addition of cold 5% TCA. Water-soluble radiolabeled inositol trisphosphate (IP3) was isolated after ether extraction by ion-exchange chromatography (Guo, J., et al., Endocrinology 136(9):3884-3891 (1995)). In experiments involving HEK 293 cells, cells previously transfected with human PTHR cDNA (in the pcDNA1 expression vector HKRK) using Lipofectamine (Gibco BRL) were labeled with [^3H]myo-inositol and assayed as described above, except that total water-soluble [^3H]inositol polyphosphates were collected as a single fraction from the ion-exchange columns.
# hPTH-2 receptors [4] = molecular target: T2, hPTH-2 receptors (Homo sapiens, UniProt P49190); experiment: phospholipase C activation in HPR2-22 cells; conditions: 1.5 million hPTH-2 receptors per cell, 1,000 nM (FIG. 5)
# T2 construct: expressed in transfected cells
# From the text: as §1, §3
# hPTH-2 receptors [5] = molecular target: T2, hPTH-2 receptors; experiment: cAMP measurements in clonal LLC-PK1 cells (HPR2-7); conditions: for cAMP responsiveness, efficacy compared with hPTH(1-34)NH2 / maximal cyclase activation (maximal response) compared with hPTH(1-34): HPR2-7 cells; for cAMP responsiveness, efficacy compared with hPTH(1-34)NH2: about 250,000 human PTH-2 receptors per cell (FIG. 3); for maximal cyclase activation (maximal response) compared with hPTH(1-34) / EC50 lower than that of hPTH(1-34): human PTH-2 receptor; for maximal cyclase activation (maximal response) compared with hPTH(1-34): very high concentrations (1 micromolar); for pEC50: clonal LLC-PK1 cells stably expressing human PTH-2 receptors, read-out: EC50 for activation of AC
# From the text: as §1, with “HKRK-B7 cells are subclones of LLC-PK which stably express approximately 1 million hPTH-1 receptors per cell. HPR2-22 cells are subclones of LLC-PK1 which express 1.5 million recombinant hPTH-2 receptors per cell.” left out
# as §2
# hPTH-1 receptors [6] = molecular target: T1, hPTH-1 receptors; experiment: AC activation in HKRK B7 cells; parameters: expressed in transfected cells; conditions: HKRK B7 cells (large number of human PTH-1 receptors)
# From the text: as §1, §2
# T2 sequence (P49190 25-550): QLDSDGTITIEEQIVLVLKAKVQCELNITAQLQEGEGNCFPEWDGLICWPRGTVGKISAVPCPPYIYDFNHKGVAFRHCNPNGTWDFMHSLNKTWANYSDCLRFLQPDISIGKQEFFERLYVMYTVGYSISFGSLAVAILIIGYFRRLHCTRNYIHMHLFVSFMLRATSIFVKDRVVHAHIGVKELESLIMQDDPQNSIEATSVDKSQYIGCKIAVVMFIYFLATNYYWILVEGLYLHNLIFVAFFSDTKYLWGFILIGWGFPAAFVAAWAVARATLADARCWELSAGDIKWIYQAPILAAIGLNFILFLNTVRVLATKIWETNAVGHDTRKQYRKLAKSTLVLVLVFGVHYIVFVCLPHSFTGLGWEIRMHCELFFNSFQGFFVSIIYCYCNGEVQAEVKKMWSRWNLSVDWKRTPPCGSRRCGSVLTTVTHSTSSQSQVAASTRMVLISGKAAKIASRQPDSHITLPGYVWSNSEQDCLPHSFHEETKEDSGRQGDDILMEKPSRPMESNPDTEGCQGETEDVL
"cyclic AMP accumulation, efficacy compared with native hPTH(1-34)NH2 (hPTH-1 receptors [2])",activation of PLC (hPTH-1 receptors [3]),PLC activity as % of the hPTH(1-34) maximum (hPTH-1 receptors [3]; 1000 nM),activation of phospholipase C (hPTH-2 receptors [4]),reduction of AC activity relative to hPTH(1-34) (hPTH-1 receptors [2]),"cAMP responsiveness, efficacy compared with hPTH(1-34)NH2 (hPTH-2 receptors [5])",maximal cyclase activation (maximal response) compared with hPTH(1-34) (hPTH-2 receptors [5]; listed as desamino-[Ala^1]),maximal cyclase activation (maximal response) compared with hPTH(1-34) (hPTH-2 receptors [5]; listed as desamino-[Ala^1]hPTH(1-34)),pEC50 (hPTH-2 receptors [5]),EC50 lower than that of hPTH(1-34) (hPTH-2 receptors [5]),activation of AC compared with hPTH-(1-34) (hPTH-1 receptors [6]),maximal cyclase activation (maximal response) compared with hPTH(1-34) (hPTH-2 receptors [5]; listed as desamino-[Gly^1]),maximal cyclase activation (maximal response) compared with hPTH(1-34) (hPTH-2 receptors [5]; listed as desamino-[Gly^1]hPTH(1-34)),Molecule,cyclase (cAMP) activity compared with control hPTH(1-34) (hPTH-1 receptors [1])
nearly the same efficacy,fill agonists,–,–,–,–,–,–,–,–,–,–,–,"[Ala^1]hPTH(1-34)NH2: hPTH-(1-34) with substitution of Ala^1 for Ser^1 (AVSEIQLMHNLGKHLNSMERVEWLRKKLQDVHNF-NH2; not fully specified (residue 1); UniProt P01270 32-65, looked up, variant S1A)",comparable to that of the control peptide
nearly the same efficacy,only a partial agonist,approximately 50%,–,–,–,–,–,–,–,–,–,–,"[Gly^1]hPTH(1-34)NH2: hPTH-(1-34) with substitution of Gly^1 for Ser^1 (GVSEIQLMHNLGKHLNSMERVEWLRKKLQDVHNF-NH2; not fully specified (residue 1); UniProt P01270 32-65, looked up, variant S1G)",comparable to that of the control peptide
–,no activation of PLC,–,greater maximal activation,10 fold,enhanced efficacy,substantially greater,twice,8.00,3 fold,approximately equipotent,–,–,CCC(=O)N[C@H](C(=O)N[C@@H](CO)C(=O)N[C@@H](CCC(=O)O)C(=O)N[C@H](C(=O)N[C@@H](CCC(N)=O)C(=O)N[C@@H](CC(C)C)C(=O)N[C@@H](CCSC)C(=O)N[C@@H](Cc1c[nH]cn1)C(=O)N[C@@H](CC(N)=O)C(=O)N[C@@H](CC(C)C)C(=O)NCC(=O)N[C@@H](CCCCN)C(=O)N[C@@H](Cc1c[nH]cn1)C(=O)N[C@@H](CC(C)C)C(=O)N[C@@H](CC(N)=O)C(=O)N[C@@H](CO)C(=O)N[C@@H](CCSC)C(=O)N[C@@H](CCC(=O)O)C(=O)N[C@@H](CCCNC(=N)N)C(=O)N[C@H](C(=O)N[C@@H](CCC(=O)O)C(=O)N[C@@H](Cc1c[nH]c2ccccc12)C(=O)N[C@@H](CC(C)C)C(=O)N[C@@H](CCCNC(=N)N)C(=O)N[C@@H](CCCCN)C(=O)N[C@@H](CCCCN)C(=O)N[C@@H](CC(C)C)C(=O)N[C@@H](CCC(N)=O)C(=O)N[C@@H](CC(=O)O)C(=O)N[C@H](C(=O)N[C@@H](Cc1c[nH]cn1)C(=O)N[C@@H](CC(N)=O)C(=O)N[C@@H](Cc1ccccc1)C(N)=O)C(C)C)C(C)C)[C@@H](C)CC)C(C)C [desamino-[Ala^1]hPTH(1-34)NH2] (Propionyl-VSEIQLMHNLGKHLNSMERVEWLRKKLQDVHNF-NH2),minimal activity
–,no activation of PLC,–,greater maximal activation,10 fold,enhanced efficacy,–,–,8.00,3 fold,approximately equipotent,substantially greater,twice,Ac-VSEIQLMHNLGKHLNSMERVEWLRKKLQDVHNF-NH2 [desamino-[Gly^1]hPTH(1-34)NH2],minimal activity
